Like-named read-outs stand apart in the source and are kept apart here.
What was measured:
[1] = tested on: NRF2; details: cited from earlier work
[2] = tested on: HepG2 cells; experiment: cells; details: Homo sapiens
[3] = tested on: HEK293 and HepG2 cell lines; details: any activity in any time point/assay
[4] = tested on: HEK293 cells; details: HEK293 glo
[5] = tested on: HepG2 cells; details: HepG2 glo
[6] = tested on: HEK293 cells; experiment: cells; details: Homo sapiens
[7] = tested on: HEK293 cells; experiment: cells; details: Homo sapiens; remark: listed apart in the source
[8] = tested on: HEK293 cells; details: HEK293 flor
[9] = tested on: HepG2 cells; experiment: CellTox Green Cytotoxicity Assay (flor) in HepG2, HepG2[flor]; format: cell-based, human; details: HepG2 flor; for EC50: Homo sapiens, given as negative log-scale values;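 as to hepg2 flor emax 0: percent activity versus DMSO-only wells with baseline rescaled to 0%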;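 as to hepg2 flor emax 40: percent activity versus DMSO-only wells with baseline rescaled to 0%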

SMILES: CC(=O)O[C@H]1CC[C@@]2(C)C(=CC[C@@H]3[C@@H]2CC[C@]2(C)C(C(C)=O)=CC[C@@H]32)C1 [Dehydropregnenolone acetate]
- increase NRF2 TF activity, POD potency [1]: 4.85 log10(M)*-1

SMILES: O=C(OC1CCCCC1)c1ccccc1C(=O)OC1CCCCC1 [Dicyclohexyl phthalate]
- increase NRF2 TF activity, POD potency [1]: 4.18 log10(M)*-1

SMILES: O.[Br-].[Br-].c1cc[n+]2c(c1)-c1cccc[n+]1CC2 [Diquat dibromide monohydrate]
- increase NRF2 TF activity, POD potency [1]: 5.17 log10(M)*-1

SMILES: O=S1(=O)OC(c2ccc(O)cc2)(c2ccc(O)cc2)c2ccccc21 [Phenol red]
- EC50 ([2]; HepG2, read-out: hepg2_glo_ec50_0): 25.6 µM
- EC50 ([2]; HepG2, read-out: hepg2_glo_ec50_8): > 38.3 µM
- EC50 ([2]; HepG2, read-out: hepg2_glo_ec50_16): > 38.3 µM
- EC50 ([2]; HepG2, read-out: hepg2_glo_ec50_24): > 38.3 µM
- EC50 ([2]; HepG2, read-out: hepg2_glo_ec50_32): > 38.3 µM
- EC50 ([2]; HepG2, read-out: hepg2_glo_ec50_40): > 38.3 µM
- information [3]: 1
- hek293_glo_auc [4]: 1.203
- hek293_glo_time [4]: 40
- hek293_glo_bin ([4]; kinetics bin): no_cv (no_cv: time > 40)
- hek293_glo_emax_0 ([4]; time point 0): -33.7
- hek293_glo_pod_0 ([4]; time point 0): -4.507
- hek293_glo_wauc_0 ([4]; time point 0): 0.8079
- hek293_glo_emax_8 ([4]; time point 8): -27.7816
- hek293_glo_pod_8 ([4]; time point 8): -4.452
- hek293_glo_wauc_8 ([4]; time point 8): 0.7338
- hek293_glo_emax_16 ([4]; time point 16): -27.6507
- hek293_glo_pod_16 ([4]; time point 16): -4.4502
- hek293_glo_wauc_16 ([4]; time point 16): 0.732
- hek293_glo_emax_24 ([4]; time point 24): 0
- hek293_glo_pod_24 ([4]; time point 24): -4.417
- hek293_glo_wauc_24 ([4]; time point 24): 0
- hek293_glo_emax_32 ([4]; time point 32): 0
- hek293_glo_pod_32 ([4]; time point 32): -4.417
- hek293_glo_wauc_32 ([4]; time point 32): 0
- hek293_glo_emax_40 ([4]; time point 40): 0
- hek293_glo_pod_40 ([4]; time point 40): -4.417
- hek293_glo_wauc_40 ([4]; time point 40): 0
- hepg2_glo_auc [5]: 0.5829
- hepg2_glo_bin ([5]; kinetics bin): inconclusive
- hepg2_glo_emax_0 ([5]; time point 0): -25.8612
- hepg2_glo_pod_0 ([5]; time point 0): -4.428
- hepg2_glo_wauc_0 ([5]; time point 0): 0.7068
- hepg2_glo_emax_8 ([5]; time point 8): 0
- hepg2_glo_pod_8 ([5]; time point 8): -4.417
- hepg2_glo_wauc_8 ([5]; time point 8): 0
- hepg2_glo_emax_16 ([5]; time point 16): 0
- hepg2_glo_pod_16 ([5]; time point 16): -4.417
- hepg2_glo_wauc_16 ([5]; time point 16): 0
- hepg2_glo_emax_24 ([5]; time point 24): 0
- hepg2_glo_pod_24 ([5]; time point 24): -4.417
- hepg2_glo_wauc_24 ([5]; time point 24): 0
- hepg2_glo_emax_32 ([5]; time point 32): 0
- hepg2_glo_pod_32 ([5]; time point 32): -4.417
- hepg2_glo_wauc_32 ([5]; time point 32): 0
- hepg2_glo_emax_40 ([5]; time point 40): 0
- hepg2_glo_pod_40 ([5]; time point 40): -4.417
- hepg2_glo_wauc_40 ([5]; time point 40): 0
- EC50 ([6]; HEK293, read-out: hek293_glo_ec50_0): 25.6 µM
- EC50 ([6]; HEK293, read-out: hek293_glo_ec50_8): 25.6 µM
- EC50 ([6]; HEK293, read-out: hek293_glo_ec50_16): 25.6 µM
- EC50 ([6]; HEK293, read-out: hek293_glo_ec50_24): > 38.3 µM
- EC50 ([6]; HEK293, read-out: hek293_glo_ec50_32): > 38.3 µM
- EC50 ([6]; HEK293, read-out: hek293_glo_ec50_40): > 38.3 µM
- EC50 ([7]; HEK293, read-out: hek293_flor_ec50_0): > 38.3 µM
- EC50 ([7]; HEK293, read-out: hek293_flor_ec50_8): > 38.3 µM
- EC50 ([7]; HEK293, read-out: hek293_flor_ec50_16): > 38.3 µM
- EC50 ([7]; HEK293, read-out: hek293_flor_ec50_24): > 38.3 µM
- EC50 ([7]; HEK293, read-out: hek293_flor_ec50_32): > 38.3 µM
- EC50 ([7]; HEK293, read-out: hek293_flor_ec50_40): > 38.3 µM
- hek293_flor_auc [8]: 0
- hek293_flor_time [8]: 48
- hek293_flor_bin ([8]; kinetics bin): inactive
- hek293_flor_emax_0 ([8]; time point 0): 0
- hek293_flor_pod_0 ([8]; time point 0): -4.417
- hek293_flor_wauc_0 ([8]; time point 0): 0
- hek293_flor_emax_8 ([8]; time point 8): 0
- hek293_flor_pod_8 ([8]; time point 8): -4.417
- hek293_flor_wauc_8 ([8]; time point 8): 0
- hek293_flor_emax_16 ([8]; time point 16): 0
- hek293_flor_pod_16 ([8]; time point 16): -4.417
- hek293_flor_wauc_16 ([8]; time point 16): 0
- hek293_flor_emax_24 ([8]; time point 24): 0
- hek293_flor_pod_24 ([8]; time point 24): -4.417
- hek293_flor_wauc_24 ([8]; time point 24): 0
- hek293_flor_emax_32 ([8]; time point 32): 0
- hek293_flor_pod_32 ([8]; time point 32): -4.417
- hek293_flor_wauc_32 ([8]; time point 32): 0
- hek293_flor_emax_40 ([8]; time point 40): 0
- hek293_flor_pod_40 ([8]; time point 40): -4.417
- hek293_flor_wauc_40 ([8]; time point 40): 0
- hepg2_flor_auc [9]: 0
- hepg2_flor_time [9]: 48
- hepg2_flor_bin ([9]; kinetics bin): inactive
- hepg2_flor_emax_0 ([9]; time point 0): 0
- hepg2_flor_pod_0 ([9]; time point 0): -4.417
- hepg2_flor_wauc_0 ([9]; time point 0): 0
- hepg2_flor_emax_8 ([9]; time point 8): 0
- hepg2_flor_pod_8 ([9]; time point 8): -4.417
- hepg2_flor_wauc_8 ([9]; time point 8): 0
- hepg2_flor_emax_16 ([9]; time point 16): 0
- hepg2_flor_pod_16 ([9]; time point 16): -4.417
- hepg2_flor_wauc_16 ([9]; time point 16): 0
- hepg2_flor_emax_24 ([9]; time point 24): 0
- hepg2_flor_pod_24 ([9]; time point 24): -4.417
- hepg2_flor_wauc_24 ([9]; time point 24): 0
- hepg2_flor_emax_32 ([9]; time point 32): 0
- hepg2_flor_pod_32 ([9]; time point 32): -4.417
- hepg2_flor_wauc_32 ([9]; time point 32): 0
- hepg2_flor_emax_40 ([9]; time point 40): 0
- hepg2_flor_pod_40 ([9]; time point 40): -4.417
- hepg2_flor_wauc_40 ([9]; time point 40): 0
- EC50 ([9]; time point 0, read-out: hepg2_flor_ec50_0): > 38.3 µM
- EC50 ([9]; time point 8, read-out: hepg2_flor_ec50_8): > 38.3 µM
- EC50 ([9]; time point 16, read-out: hepg2_flor_ec50_16): > 38.3 µM
- EC50 ([9]; time point 24, read-out: hepg2_flor_ec50_24): > 38.3 µM
- EC50 ([9]; time point 32, read-out: hepg2_flor_ec50_32): > 38.3 µM
- EC50 ([9]; time point 40, read-out: hepg2_flor_ec50_40): > 38.3 µM

Reference: publication PMC5439695 (PLoS ONE, 2017)
